The values that follow come from patent US6596692B1, “Substance P analogs for the treatment of cancer” (Dabur Research Foundation, priority 2000, dated 2003).

The subject of one data set is KB (oral). Briefly: In vitro cytotoxic activity, MTT assay, 72 hours. To be noted: 100 pM. In kind it is cell-based, human. How it is done:
(§1) In vitro Cytotoxic Activity of the Novel Synthesized Peptide Analogs
(§2) The cytotoxic activity of synthesized peptides was tested on six human tumor cell lines namely MCF7 (breast), U373 (glioblastoma), PTC, (colon), L132 (lung), Su.86.86 (pancreas), and KB (oral). The tumor cells were collected at exponential growth phase and resuspended in medium (1.5×10^6 cells/ml in RPMI 1640 containing 10% FBS). 150 μL of medium was added to the wells of a 96-well tissue culture plate (Nunc, Denmark) followed by 30 μl of cell suspension. The plate was left in an incubator (37° C., 5% CO2) overnight. 20 μl of the peptide (100 pM to 10 μM concentration) was added to marked wells of the 96-well plate. Each concentration was plated in triplicate. 20 μl of medium alone was added to control wells while wells without cells served as blanks. A total volume of 200 μL was ensured in each well and plate was left in incubator (37° C., 5% CO2). After 72 hours of incubation an MTT assay was performed and percentage cytotoxicity was calculated with respect to control cells.
In general terms: Formazan colour is commonly taken as a measure of viable cells.

The subject of another data set is L132 (lung). Briefly: In vitro cytotoxic activity, MTT assay, 72 hours. In kind it is cell-based, human. The method, then: as §1, §2
In another data set the test system is PTC (colon). As to the kind of experiment: In vitro cytotoxic activity, MTT assay, 72 hours. The data set is classed as cell-based, human. How it is done:
as §1, §2

Data set [1] relates to human colon adenocarcinoma (PTC) xenografts. As to the kind of experiment: In vivo anti tumor activity on PTC tumor xenografts. Also noted: species or system Balb/c athymic nude mice. To be noted: 4.25 μg intravenously twice a day; for Tumor volumes, Average: group average. The method, then: In vivo Anti Tumor Activity of Substance P Analogs on PCT Tumor Xenografts Protocol The anti tumor activity of substance P analogs was studied in human colon adenocarcinoma (PTC) xenografts in nude mice. PTC tumor xenografts were grown in Balb/c athymic nude mice by subcutaneous inoculation of a single cell suspension of PTC cells (15×10^6 cells/100 μL). The tumor bearing animals were divided into 4 groups of three animals each including one group comprising untreated control animals. Treatment with Substance P Receptor Antagonists was initiated when the average tumor volumes, as measured using a vernier caliper, were between 400-800 mm^3. SEQ ID NO:5, SEQ ID NO:7 and SEQ ID NO:8 peptides were prepared at a concentration of 42.5 μg/ml and intravenously administered to the assigned group of tumor bearing animals at a dose of 4.25 μg/100 μL twice a day so that the total dose of 8.5 μg was administered to each animal. The treatment was continued for a period of 10 days. The antitumor activity of the compounds was monitored by measuring 15 tumor volumes every fourth day using the formula W*W*L*0.4 (W=smaller diameter, L=larger diameter). The percentage inhibition of tumor growth was calculated using. the formula (1−tumor volume-treated/ tumor volume-control)×100.

The subject of another data set is H69 SCLC cells. To be noted: cited from earlier work.
Data set [2] concerns H69 SCLC cells xenografts. To be noted: xenografts in vivo in nude mice; cited from earlier work.
A further data set deals with Swiss 3T3 cells. To be noted: cited from earlier work.
The test system of another data set is SCLC xenografts. To be noted: cited from earlier work.
The next data set deals with SCLC cells. To be noted: SCLC proliferation; read-out: IC50, inhibition of SCLC proliferation; cited from earlier work.
Another data set concerns H-510 SCLC cells. To be noted: liquid culture and semi-solid media, read-out: IC50, inhibition of proliferation; cited from earlier work.
Another data set relates to H-69 SCLC cells. To be noted: liquid culture and semi-solid media, read-out: IC50, inhibition of proliferation; cited from earlier work.

Non-standard residues stand in square brackets, D forms with d. Residues, ends and D or L forms follow the SMILES beside them. *: point of attachment. Octanoyl = CCCCCCCC(=O)*; pHOPA = not defined here; Ac5c = NC1(C(=O)O)CCCC1; Butyryl = CCCC(=O)*

As to `CCCC(=O)N[C@H](CCCNC(=N)N)C(=O)N1CCC[C@H]1C(=O)N[C@@H](CCCCN)C(=O)N1CCC[C@H]1C(=O)N[C@H](Cc1ccccc1)C(=O)N[C@@H](CCC(N)=O)C(=O)N[C@H](Cc1c[nH]c2ccccc12)C(=O)N[C@@H](Cc1ccccc1)C(=O)N[C@H](Cc1c[nH]c2ccccc12)C(=O)N[C@@H](CC(C)C)C(=O)NC1(C(N)=O)CCCC1` [SEQ ID NO: 7, Butanoyl-D-Arg-Pro-Lys-Pro-D-Phe-Gln-D-Trp-Phe-D-Trp-Leu-Ac5c-NH2] (Butyryl-[dR]PKP[dF]Q[dW]F[dW]L[Ac5c]-NH2), the Percentage cytotoxicity result in the data set on KB (oral) is listed as “Nil”; in the data set with L132 (lung) (100 nM), 9 ± 2.3%; in the data set on L132 (lung) (10 μM), 15 ± 2.3%; with PTC (colon) (100 pM) it was “Nil”; in the data set with PTC (colon) (1 nM), “Nil”. In addition, the “Tumor volumes, animal I” value in data set [1] (Day 6) is given as 25.6 mm^3; in data set [1] (Day 8), 176.4 mm^3; in data set [1] (Day 12), 580.8 mm^3; in [1] (Day 15), 946.4 mm^3; in data set [1] (Day 19), 1741 mm^3; in data set [1] (Day 22) it was 2018 mm^3. Further, the “Tumor volumes, animal II” value in data set [1] (Day 6) came out at 66.6 mm^3; in [1] (Day 8), 260.1 mm^3; in data set [1] (Day 12), 1440 mm^3; in [1] (Day 15), 2427.6 mm^3; in data set [1] (Day 19) it was 2253 mm^3; in data set [1] (Day 22), 3110 mm^3. For the same compound, the “Tumor volumes, animal III” value is recorded as 0 mm^3 in data set [1] (Day 6); 72 mm^3 in data set [1] (Day 8); 281.6 mm^3 in [1] (Day 12); 864 mm^3 in data set [1] (Day 15); 1800 mm^3 in data set [1] (Day 19); 0 mm^3 in data set [1] (Day 22). Moreover, the “Tumor volumes, Average” value was found to be 30.7 mm^3 in data set [1] (Day 6); 169.5 mm^3 in data set [1] (Day 8); 767.4 mm^3 in [1] (Day 12); 1412.6 mm^3 in data set [1] (Day 15); 1931.3 mm^3 in data set [1] (Day 19); 1709.3 mm^3 in [1] (Day 22).

For the compound “pHOPA-D-Trp-Phe-D-Trp-Leu-Leu-NH2 (pHOPA-[dW]F[dW]LL-NH2; reading uncertain) [Analog R]”, the “inhibition of proliferation of H69 SCLC cells in vitro” value in the data set with H69 SCLC cells is listed as “inhibit the proliferation”. Further, in [2], the “inhibition of proliferation of H69 SCLC cells in xenografts” value is given as “inhibit the proliferation”.

As for `CCCCCCCC(=O)N[C@H](CCCNC(=N)N)C(=O)N1CCC[C@H]1C(=O)N[C@@H](CCCCN)C(=O)N1CCC[C@H]1C(=O)N[C@H](Cc1ccccc1)C(=O)N[C@@H](CCC(N)=O)C(=O)N[C@H](Cc1c[nH]c2ccccc12)C(=O)N[C@@H](Cc1ccccc1)C(=O)N[C@H](Cc1c[nH]c2ccccc12)C(=O)N[C@@H](CC(C)C)C(=O)NC1(C(N)=O)CCCC1` [SEQ ID NO: 8, Octanoyl-D-Arg-Pro-Lys-Pro-D-Phe-Gln-D-Trp-Phe-D-Trp-Leu-Ac5c-NH2] (Octanoyl-[dR]PKP[dF]Q[dW]F[dW]L[Ac5c]-NH2), the “Tumor volumes, animal I” value in data set [1] (Day 6) is 532.4 mm^3; in data set [1] (Day 8) it was 1020.6 mm^3; in data set [1] (Day 12), 2080.8 mm^3; in data set [1] (Day 15), 3880.8 mm^3; in data set [1] (Day 19) it was 3520.0 mm^3; in data set [1] (Day 22) it was 2312.0 mm^3. Further, the “Tumor volumes, animal II” value is 291.6 mm^3 in data set [1] (Day 6); 691.2 mm^3 in data set [1] (Day 8); 1440 mm^3 in [1] (Day 12); 2592 mm^3 in data set [1] (Day 15); 1474.8 mm^3 in data set [1] (Day 19); 36 mm^3 in [1] (Day 22). In addition, the “Tumor volumes, animal III” value was found to be 0 mm^3 in data set [1] (Day 6); 0 mm^3 in data set [1] (Day 8); 156.8 mm^3 in [1] (Day 12); 580.8 mm^3 in data set [1] (Day 15); 1710 mm^3 in data set [1] (Day 19); 3177 mm^3 in data set [1] (Day 22). For the same compound, the “Tumor volumes, Average” value is on record as 274.6 mm^3 in data set [1] (Day 6); 570.6 mm^3 in data set [1] (Day 8); 1225.8 mm^3 in [1] (Day 12); 2351.2 mm^3 in data set [1] (Day 15); 2234.9 mm^3 in data set [1] (Day 19); 1841.6 mm^3 in data set [1] (Day 22).

Turning to “[Arg^6,D-Trp^7,9, MePhe^8] substance P(6-11) [antagonist G]”, the “potency relative to antagonist D” value in the data set with Swiss 3T3 cells (blocking bombesin/GRP mediated mitogenesis in Swiss 3T3 cells) is listed as “ten fold less potent than antagonist D”. Besides, the “inhibition of SCLC xenografts in vivo” value in the data set on SCLC xenografts is given as “showed inhibition of SCLC xenografts in vivo”.

For “D-MePhe-D-Trp-Phe-D-TrpLeu(psi)-(CH2NH)-Leu-NH2) [Analog 6]”, in the data set with SCLC cells, the IC50 is 2 µM.

As for “[D-Arg^1, D-Phe^5, D-Trp^7,9, Leu^11] substance P [Antagonist D]”, the IC50 in the data set on H-510 SCLC cells and in the data set with H-69 SCLC cells was 5 µM each time. Moreover, the “potency relative to antagonist A” value in the data set on Swiss 3T3 cells (preventing cellular effects of bombesin/GRP and vasopressin in mouse 3T3 cells, also growth of SCLC cells in serumfree medium) is recorded as “five fold more potent than antagonist A”.

On to “D-MePhe-D-Trp-Phe-DTrp-Leu-MPA [Analog 7]”, for which the IC50 in the data set on SCLC cells is 5 µM.
